Where two headings read alike, the source gives them in different places.
System: Aedes aegypti
Assay: Warm Body assay, mosquito landings on the baited warm body
Assay type: in vivo
Settings: for pest or weed control at 16 µg/mL / pest or weed control at 400 µg/mL / pest or weed control at 10000 µg/mL: Aedes aegypti, read-out: Percentage of repellence of mosquitoes landing on the warm body
Procedure: The controlling effect according to the present invention was assessed using an adapted Warm Body assay as defined in Kröber T, Kessler S, Frei J, Bourquin M, Guerin P M. 2010. J Am Mosq Control Assoc. 26:381-386. In this in-vitro assay the number of mosquito landing on a warm body, simulating an attractive host treated with the tested stimuli, was measured in order to assess the repellence effect.
The published protocol has been adapted as the switch from Anopheles gambiae to Ae. aegypti led to a decrease of mosquitoes placed in the tested cage due to the size difference (i.e. 30 mosquitoes instead of 50) and to an increase of lighting since Ae. aegypti is a diurnal mosquitoes (i.e. 150 lux instead of 4 lux).
On the sandblasted glass Petri dish covering the warm body (28.3 cm^2), 100 μL of the compounds diluted at different concentrations in ethanol was applied. The number of mosquito landing on the warm body was counted for each stimulus. Number of landings on pure ethanol (solvent) control treatment was used to normalize the data and calculate the percentage of repellence.

[1] = more complex lactones (types A, B, C), 0.016 mg/mL
[2] = more complex lactones (types A, B, C), 0.4 mg/mL
[3] = more complex lactones (types A, B, C), 10 mg/mL
[4] = γ-lactones, 0.016 mg/mL in ethanol
[5] = γ-lactones, 0.4 mg/mL in ethanol
[6] = γ-lactones, 10 mg/mL in ethanol

Structure (SMILES) | pest or weed control at 16 µg/mL [4] | pest or weed control at 400 µg/mL [5] | pest or weed control at 10000 µg/mL [6] | further results
CCC=C1OC(=O)c2ccccc21 [3-propylidene-2-benzofuran-1-one] | – | – | – | pest or weed control at 16 µg/mL [1]: 83%; pest or weed control at 400 µg/mL [2]: 93%; pest or weed control at 10000 µg/mL [3]: 86%
CC=CCCCCCC1CCC(=O)O1 (stereo not shown) [5-oct-6-enyloxolan-2-one] | 12% | 78% | 100% | –
CCCCCCC=CC1CCC(=O)O1 (stereo not shown) [5-oct-1-enyloxolan-2-one] | 0% | 60% | 98% | –
CC=CCCC1CCC(=O)O1 (stereo not shown) [5-pent-3-enyloxolan-2-one] | 0% | 95% | 100% | –
CCCCCCC1(C)CCC(=O)O1 (stereo not shown) [5-hexyl-5-methyloxolan-2-one] | – | – | – | pest or weed control at 16 µg/mL [1]: 43%; pest or weed control at 400 µg/mL [2]: 75%; pest or weed control at 10000 µg/mL [3]: 97%
CCCCCC1CCCCC(=O)O1 (stereo not shown) [7-pentyloxepan-2-one] | – | – | – | pest or weed control at 400 µg/mL (β- and ε-lactones, 0.4 mg/mL): 52%; pest or weed control at 10000 µg/mL (β- and ε-lactones, 10 mg/mL): 98%; Percentage of repellence of mosquitoes landing on the warm body (β- and ε-lactones, 0.4 mg/mL): 52%
CC(C)C1OC(=O)C1(C)C (stereo not shown) [3,3-dimethyl-4-propan-2-yloxetan-2-one] | – | – | – | pest or weed control at 16 µg/mL (β- and ε-lactones, 0.016 mg/mL): 36%; pest or weed control at 400 µg/mL (β- and ε-lactones, 0.4 mg/mL): < 40%; pest or weed control at 10000 µg/mL (β- and ε-lactones, 10 mg/mL): 100%
O=C1CCCCC(C2CCCCC2)O1 (stereo not shown) [7-cyclohexyloxepan-2-one] | – | – | – | pest or weed control at 16 µg/mL (β- and ε-lactones, 0.016 mg/mL): 0%; pest or weed control at 400 µg/mL (β- and ε-lactones, 0.4 mg/mL): 10%; pest or weed control at 10000 µg/mL (β- and ε-lactones, 10 mg/mL): 26%
CCCCCC=CCC1CCC(=O)O1 (stereo not shown) [5-oct-2-enyloxolan-2-one] | 85% | 100% | 96% | –
CCCCCC1C=CC(=O)O1 (stereo not shown) [2-pentyl-2H-furan-5-one] | – | – | – | pest or weed control at 16 µg/mL [1]: 0%; pest or weed control at 400 µg/mL [2]: 53%; pest or weed control at 10000 µg/mL [3]: 100%
CCC1CCC(=O)O1 (stereo not shown) [5-ethyloxolan-2-one] | 0% | 16% | 74% | –
CCCCCCCC1=COC(=O)CC1 [5-heptyl-3,4-dihydro-2H-pyran-2-one] | – | – | – | pest or weed control at 16 µg/mL [1]: 0%; pest or weed control at 400 µg/mL [2]: 95%; pest or weed control at 10000 µg/mL [3]: 100%
C=CCCC1CCC(=O)O1 (stereo not shown) [5-but-3-enyloxolan-2-one] | 57% | 75% | 100% | –
C=CC1CCCC(=O)O1 (stereo not shown) [6-ethenyloxan-2-one] | – | – | – | mosquitoes that still land on the warm body (10 mg/mL (1 mg absolute applied)): prevents any mosquito from landing; pest or weed control at 16 µg/mL (δ-lactones, 0.016 mg/mL): 31%; pest or weed control at 400 µg/mL (δ-lactones, 0.4 mg/mL): 30%; pest or weed control at 10000 µg/mL (δ-lactones, 10 mg/mL): 100%
CCCCCC1=COC(=O)CC1 [5-pentyl-3,4-dihydro-2H-pyran-2-one] | – | – | – | pest or weed control at 16 µg/mL [1]: 60%; pest or weed control at 400 µg/mL [2]: 69%; pest or weed control at 10000 µg/mL [3]: 97%
CCCC1CCC(=O)O1 (stereo not shown) [5-propyloxolan-2-one] | 28% | 50% | 100% | –
CCCCCCC1CCC(=O)O1 (stereo not shown) [5-hexyloxolan-2-one] | 0% | 69% | 92% | –
CCCCCCCC1CCC(=O)O1 (stereo not shown) [5-heptyloxolan-2-one] | 15% | 28% | 70% | –
CCCCC1CCC(=O)O1 (stereo not shown) [5-butyloxolan-2-one] | 41% | 44% | 100% | –
CC/C=C/CCCCC1CCC(=O)O1 (stereo not shown) [5-[(E)-oct-5-enyl]oxolan-2-one] | 0% | 87% | 100% | –
C=CCCCCCCC1CCC(=O)O1 (stereo not shown) [5-oct-7-enyloxolan-2-one] | 46% | 69% | 80% | –
CCC#CCCC1CCCC(=O)O1 (stereo not shown) [6-hex-3-ynyloxan-2-one] | – | – | – | pest or weed control at 16 µg/mL (δ-lactones, 0.016 mg/mL): 0%; pest or weed control at 400 µg/mL (δ-lactones, 0.4 mg/mL): 80%; pest or weed control at 10000 µg/mL (δ-lactones, 10 mg/mL): 97%
C=CCCCC1CCCCC(=O)O1 (stereo not shown) [7-pent-4-enyloxepan-2-one] | – | – | – | pest or weed control at 400 µg/mL (β- and ε-lactones, 0.4 mg/mL): 95%; pest or weed control at 10000 µg/mL (β- and ε-lactones, 10 mg/mL): 100%; Percentage of repellence of mosquitoes landing on the warm body (β- and ε-lactones, 0.4 mg/mL): 95%

— patent publication US20260231939A1, “ARTHROPOD CONTROL COMPOSITIONS” (Firmenich SA, priority 2022, published 2026)
